Here are results for one substance from patent EP1370276B1, “INTERCELLULAR COMMUNICATION FACILITATING COMPOUNDS AND THEIR MEDICAL USE” (Zealand Pharma A/S, priority 2001, dated 2002).

Usually IC50 stands for the concentration at which inhibition is half-maximal. Higher therefore signals weaker potency in that assay. In general, EC50 refers to the concentration at which the effect is half-maximal.

For assay [1], the system named is CHO cells. Put plainly: In situ binding of [125I]AAP10 on intact CHO cells. The settings on record: overnight at 4° C. On the procedure: CHO cells are seeded in 24-multi well dishes in a density of 7,900 cells/cm^2 (∼ 15,000 cells/well) and grown for 3 Days In Vitro (DIV) in 1 ml/well of F-12K Nutrient Mixture supplemented with 10% Foetal Calf Serum (FCS) and 1000 units penicillin/1000 µg streptomycin (pen/strep) in an atmosphere of 5% CO2 and 100% humidity at 37° C. The cell density has at that time increased to 295,000 cells/cm^2 (152 pgprot/cell ∼ 85 µgprot/well).
On the day of analysis cells are removed from the incubator and each well is washed twice with, depending on the experiment, either 2 ml pre-warmed (37 °C) or ice-cold (0 °C) D-PBS to remove serum. It is important to keep the period to a minimum during which cells are left without physiological solutions to avoid that they dry out during washing procedures. The cold washed cells are used directly for binding assays while the warm washed cells are used for experiments with glucose and oxygen deprivation.
The in situ binding is performed by a modified protocol based on the description by Koenig. […] Cells incubate overnight at 4° C to reach equilibrium. Each well, one at the time, is then rinsed rapidly with 2 x 1 ml D-PBS and left to dry.
0.25 ml of 0.5 % Triton-X-100 (v/v) is added to each well and cells left for at least 1 h to solubilize. The extract is transferred to counting vials, the wells rinsed with 0.25 ml water and the rinse extract added to the corresponding vials. The vials are counted in a γ-counter. Table 3. In situ binding, IC50 (nM).

The test system of assay [2] is cAMP formation in CHO cells. As to the kind of experiment: Inhibition of forskoline stimulated cAMP formation in CHO cells. It counts as cell-based. To be noted: 10 µM forskoline, 20 min, cells pre-treated with glucose and oxygen deprivation. As to the method: CHO cells are seeded in 96-well microtiter plates in a density of 6,000 cells/cm^2 (∼ 2,000 cells/well) and grown for 4 days in vitro in 200 µl/well of growth media as described in the previous section.
On the day of analysis cells are removed from the incubator and washed twice with 200 µl pre-warmed (37°C) D-PBS (pH 7.2) to remove serum. Cells are incubated for 10 min in glucose free D-PBS and an N2-atmosphere as described in the previous section.
CHO cells are incubated at 37° C in D-PBS (pH 7.2) containing 6 mM glucose, 2.0 mM IBMX (phospodiesterase blocker), 10 µM forskoline (stimulates cAMP formation) and increasing concentrations of test peptide. The reaction is stopped after 20 min by addition of 20 µl 0.5 M HCl and left for at least 20 min at room temperature.
The content of cAMP is analysed by mixing 20 µl of the acid cell extract into FlashPlate™ wells (NEN assay kit SMP001) containing 180 µl [^12SI]cAMP tracer solution. FlashPlates™ are incubated overnight at 4° C and plate bound radioactivity counted in TopCount (Packard Instrument). Data are calculated as described in the previous section.
On the technique in general: Cyclic AMP is a second messenger, typically raised through Gs and lowered through Gi signalling.

For assay [3], the system named is alkaline phosphatase (ALP) activity of human osteoblasts. Put plainly: Alkaline phosphatase assay in human osteoblasts. The class given is cell-based. On the procedure:
Human osteblast cells (hOB): Cells were isolated from human bone marrow obtained by puncture of the posterior iliac spine of healthy volunteers (aged 20-36): 10-15 ml marrow material was collected in 15 ml PBS+Ca,Mg (Life Technologies, Cat.No. 14040) with 100 U/ml Heparin (Sigma, Cat.No. H-3149). The mononuclear fraction of the marrow was isolated on a Lymphoprep gradient (Nycomed Pharma, Cat.No. 1001967), by centrifugation at 2200 rpm for 30 min. After harvesting, the mononuclear fraction was washed once with culture medium and centrifuged at 1800 rpm for 10 min. Subsequently cells were counted and plated in culture medium at 8x10^6 cells/100 mm dish. hOB medium (all reagents obtained from Life Technologies): MEM w/o Phenol Red w/ Glutamax (Cat.No. 041-93013) supplemented with 10% heat inactivated fetal calf serum (Cat.No. 10106) and 0.1% Penicillin/Streptomycin (Cat.No. 15140). Medium was changed the following day and the cells were cultured at 37°C in 5%CO2 with medium change every 7 days. After 3-4 weeks of culture the cells had reached 70% confluence. […]
• Day 1: Cells were plated in 96-well plates at a conc. of 8000 cells/well (hOB) or 3000 cells/well (ROS) in 200 µl normal culture medium. • Day 2: Medium was changed on the cells. • Day 4: (Day 3 for ROS): Cells were washed with 200 µl MEM, 0.1% BSA (Sigma, Cat.No. A-9418). […] Absorbance was measured using a plate reader at 405 nm.

The subject of assay [4] is phosphoinositol turnover in rat primary cardiomyocytes. The settings on record: oxygen and glucose deprivation (untreated app. 50%); conference abstract; cited from earlier work.
Assay [5] deals with human osteoblast. The settings on record: human osteoblast cultures and osteoblastic rat osteosarcoma cell lines; conference abstract; cited from earlier work.

“Ac-D-Tyr-D-Pro-D-4Hyp-Gly-D-Ala-Gly-NH2 [Compound 2]” showed an IC50 in assay [1] of 0.5 nM. The EC50 in assay [2] was determined as 6.2 nM. For the same substance, the ALP activity entry in assay [3] (1 × 10^-13 to 1 × 10^-6, normal culture conditions, 4 days) is “increased ALP activity at most of the concentrations tested”. For the same substance, the “stimulation of ALP activity during hypoxia compared with normoxia” value in assay [3] (5% O2, four days, 10^-11 to 10^-8 mol/l) is “about 15%”. The “noradrenalin-induced PI turnover, % of the normal level” value in assay [4] is reported as ~90%. Moreover, the “hypoxia-induced decrease of dye transfer after Lucifer Yellow injections” value in assay [5] is listed as “completely reversed”.
